Our source for the IC50 values is patent publication US20200262813A1, “1,5,7-TRISUBSTITUTED ISOQUINOLINE DERIVATIVES, PREPARATION THEREOF, AND USE THEREOF IN MEDICINES” (SHANGHAI HAIYAN PHARMACEUTICAL TECHNOLOGY CO., LTD., priority 2016, published 2020).

In general, IC50 refers to the midpoint of a concentration-inhibition curve.

The target of one test is Recombinant PRC2 (EZH2-Y641F) (Homo sapiens, UniProt Q15910, Y641F). The test is described as follows: In vitro methyltransferase activity test (LANCE Ultra).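 Also: compounds tested as an 8-point threefold dilution series, fluorescence read after 1 h detection step at room temperature, IC50 derived from a four-parameter curve fit.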 The conditions noted are these: EZH2 Y641F IC50, Recombinant PRC2 (EZH2-Y641F), LANCE Ultra detection, 3 hours reaction. On the technique in general: TR-FRET usually uses a lanthanide donor and a delayed reading to cut background.
Sequence of Recombinant PRC2 (EZH2-Y641F) (Q15910 whole entry Y641F): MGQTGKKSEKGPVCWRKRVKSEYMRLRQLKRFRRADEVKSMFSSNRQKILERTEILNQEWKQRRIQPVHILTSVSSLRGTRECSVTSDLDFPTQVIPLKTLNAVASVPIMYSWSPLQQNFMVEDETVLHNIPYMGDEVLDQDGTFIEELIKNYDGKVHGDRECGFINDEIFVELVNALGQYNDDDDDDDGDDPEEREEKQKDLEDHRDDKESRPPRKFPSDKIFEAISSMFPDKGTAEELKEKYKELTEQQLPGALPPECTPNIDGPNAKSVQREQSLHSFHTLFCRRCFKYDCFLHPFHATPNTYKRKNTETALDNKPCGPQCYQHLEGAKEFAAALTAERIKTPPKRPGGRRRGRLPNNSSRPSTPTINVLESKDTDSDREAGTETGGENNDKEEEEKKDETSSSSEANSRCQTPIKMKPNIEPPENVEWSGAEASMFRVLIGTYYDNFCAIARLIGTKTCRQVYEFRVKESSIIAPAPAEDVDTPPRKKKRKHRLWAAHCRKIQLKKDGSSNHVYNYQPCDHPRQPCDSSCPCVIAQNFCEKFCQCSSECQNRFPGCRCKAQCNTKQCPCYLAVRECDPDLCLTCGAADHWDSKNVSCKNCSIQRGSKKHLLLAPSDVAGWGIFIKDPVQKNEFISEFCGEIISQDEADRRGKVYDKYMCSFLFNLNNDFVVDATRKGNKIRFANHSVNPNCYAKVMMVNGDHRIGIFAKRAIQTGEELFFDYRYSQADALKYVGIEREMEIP
Sequence of Recombinant PRC2 (EZH2-Y641F) (O75530 whole entry partner): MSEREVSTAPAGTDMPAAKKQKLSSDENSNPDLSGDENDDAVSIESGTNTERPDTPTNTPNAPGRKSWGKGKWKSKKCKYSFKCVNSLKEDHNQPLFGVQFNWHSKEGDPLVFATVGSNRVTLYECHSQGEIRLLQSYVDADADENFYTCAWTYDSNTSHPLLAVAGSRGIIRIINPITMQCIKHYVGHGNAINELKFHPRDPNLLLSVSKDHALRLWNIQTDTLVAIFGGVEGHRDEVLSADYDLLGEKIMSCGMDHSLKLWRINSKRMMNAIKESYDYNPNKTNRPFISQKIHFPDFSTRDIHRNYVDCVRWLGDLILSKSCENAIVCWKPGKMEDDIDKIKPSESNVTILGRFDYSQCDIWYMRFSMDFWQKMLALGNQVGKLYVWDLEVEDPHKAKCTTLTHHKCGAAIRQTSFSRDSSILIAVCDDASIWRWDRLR
Sequence of Recombinant PRC2 (EZH2-Y641F) (Q15022 whole entry partner): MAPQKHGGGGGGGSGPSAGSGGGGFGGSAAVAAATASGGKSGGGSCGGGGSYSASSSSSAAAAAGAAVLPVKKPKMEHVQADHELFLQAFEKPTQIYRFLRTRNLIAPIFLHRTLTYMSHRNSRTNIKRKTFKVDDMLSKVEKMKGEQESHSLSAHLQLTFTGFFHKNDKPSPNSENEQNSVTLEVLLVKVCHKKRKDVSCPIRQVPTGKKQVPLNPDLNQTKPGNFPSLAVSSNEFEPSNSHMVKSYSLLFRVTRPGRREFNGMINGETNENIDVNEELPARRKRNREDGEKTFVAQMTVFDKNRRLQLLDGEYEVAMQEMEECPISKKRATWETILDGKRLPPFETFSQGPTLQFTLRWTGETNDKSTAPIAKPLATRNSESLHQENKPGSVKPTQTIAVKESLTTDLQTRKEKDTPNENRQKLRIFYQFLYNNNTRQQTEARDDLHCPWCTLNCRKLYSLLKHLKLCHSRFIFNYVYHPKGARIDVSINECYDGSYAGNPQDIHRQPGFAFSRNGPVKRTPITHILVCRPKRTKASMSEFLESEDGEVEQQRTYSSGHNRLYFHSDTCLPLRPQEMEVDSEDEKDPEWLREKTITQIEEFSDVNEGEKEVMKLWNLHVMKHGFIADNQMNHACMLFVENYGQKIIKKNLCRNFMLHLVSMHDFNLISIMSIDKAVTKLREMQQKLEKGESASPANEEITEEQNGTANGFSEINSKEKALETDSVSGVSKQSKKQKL
Sequence of Recombinant PRC2 (EZH2-Y641F) (Q09028 whole entry partner): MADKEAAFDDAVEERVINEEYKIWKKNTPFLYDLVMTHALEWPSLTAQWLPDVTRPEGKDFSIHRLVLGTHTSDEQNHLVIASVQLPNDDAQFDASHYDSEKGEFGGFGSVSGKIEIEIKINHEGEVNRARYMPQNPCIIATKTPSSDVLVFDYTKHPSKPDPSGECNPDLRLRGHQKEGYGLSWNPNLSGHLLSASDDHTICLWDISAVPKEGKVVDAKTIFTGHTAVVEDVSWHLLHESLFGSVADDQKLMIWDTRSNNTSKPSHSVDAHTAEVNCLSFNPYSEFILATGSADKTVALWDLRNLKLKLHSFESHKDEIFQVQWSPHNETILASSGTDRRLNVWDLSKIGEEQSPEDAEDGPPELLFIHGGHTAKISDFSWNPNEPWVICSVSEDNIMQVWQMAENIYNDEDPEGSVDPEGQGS
Sequence of Recombinant PRC2 (EZH2-Y641F) (Q6ZN18 whole entry partner): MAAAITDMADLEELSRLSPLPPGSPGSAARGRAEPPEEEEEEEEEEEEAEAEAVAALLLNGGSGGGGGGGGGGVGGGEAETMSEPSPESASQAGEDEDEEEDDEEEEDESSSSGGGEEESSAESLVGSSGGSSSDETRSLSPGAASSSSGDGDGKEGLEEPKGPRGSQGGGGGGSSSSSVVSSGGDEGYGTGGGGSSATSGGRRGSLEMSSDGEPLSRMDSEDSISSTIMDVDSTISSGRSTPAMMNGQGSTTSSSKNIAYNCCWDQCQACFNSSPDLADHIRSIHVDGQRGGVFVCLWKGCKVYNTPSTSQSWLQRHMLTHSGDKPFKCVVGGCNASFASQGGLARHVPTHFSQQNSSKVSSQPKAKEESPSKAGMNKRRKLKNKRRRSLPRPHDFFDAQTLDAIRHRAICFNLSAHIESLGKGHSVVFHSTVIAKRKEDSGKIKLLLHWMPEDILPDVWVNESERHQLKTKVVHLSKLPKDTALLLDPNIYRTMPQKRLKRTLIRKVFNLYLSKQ
On to `CCN(c1cc(-c2ccc(C(=O)N3CCOCC3)nc2)cc2c(NCc3c(C)cc(C)[nH]c3=O)nccc12)C1CCN(C(C)C)CC1` [Compound Z-123], for which the IC50 is 75 nM.
The same measure, in the same setting: in the case of `CCN(c1cc(-c2ccc(C(=O)N3CCN(C)CC3)nc2)cc2c(NCc3c(C)cc(C)[nH]c3=O)nccc12)C1CCN(C(C)C)CC1` [Compound Z-124] it was 51 nM; in that of `CCN(c1cc(-c2ccc(CN(C)C)nc2)cc2c(NCc3c(C)cc(C)[nH]c3=O)nccc12)C1CCC(N(C)C)CC1` (stereo not shown) [Compound Z-128], 225 nM.
On the same count and under the same terms, in the case of `CCN(c1cc(C(F)(F)F)cc2c(NCc3c(C)cc(C)[nH]c3=O)nccc12)C1CCC(N(C)C)CC1` (stereo not shown) [Compound Z-134] it was 117 nM; in that of `CCN(c1cc(Cl)cc2c(NCc3c(C)cc(C)[nH]c3=O)nccc12)C1CCS(=O)(=O)CC1` [Compound Z-139], 418 nM; in that of `CCN(c1cc(Cl)cc2c(NCc3c(C)cc(C)[nH]c3=O)nccc12)C1CCN(C(C)=O)CC1` [Compound Z-144], 152 nM.
For `CCN(c1cc(Cl)cc2c(NCc3c(C)cc(C)[nH]c3=O)nccc12)C1CCC(N(C)CCOC)CC1` (stereo not shown) [Compound Z-145], the IC50 amounted to 203 nM.
The same measure, in the same setting: in the case of `CCN(c1cc(Cl)cc2c(NCc3c(C)cc(C)nc3O)nccc12)[C@H]1CC[C@H](N2CC(OC)C2)CC1` [Compound Z-149] it was 159 nM; in that of `CCN(c1cc(-c2ccc(N3CCNCC3)nc2)cc2c(NCc3c(C)cc(C)[nH]c3=O)nccc12)C1CCOCC1` [Compound Z-151], 50 nM; in that of `CCN(c1cc(-c2ccc(CN3CCNCC3)nc2)cc2c(NCc3c(C)cc(C)[nH]c3=O)nccc12)C1CCOCC1` [Compound Z-152], 96 nM.
Turning to `CCN(c1cc(-c2ccc(CN3CCNCC3)cc2)cc2c(NCc3c(C)cc(C)[nH]c3=O)nccc12)C1CCC(N(C)C)CC1` (stereo not shown) [Compound Z-153], the IC50 is 54 nM.
In the case of `CCN(c1cc(-c2ccc(CN3CCNCC3)nc2)cc2c(NCc3c(C)cc(C)[nH]c3=O)nccc12)C1CCC(N(C)C)CC1` (stereo not shown) [Compound Z-154], the IC50 is 19 nM.
Still for that read-out and setting: in the case of `CCN(c1cc(-c2cn[nH]c2)cc2c(NCc3c(C)cc(C)[nH]c3=O)nccc12)C1CCC(N(C)C)CC1` (stereo not shown) [Compound Z-155] it was 159 nM; in that of `CCN(c1cc(-c2ccc(N3CCNCC3)nc2)cc2c(NCc3c(C)cc(C)[nH]c3=O)nccc12)C1CCC(NC(C)=O)CC1` (stereo not shown) [Compound Z-156], 37 nM.
Still for that read-out and setting: with `CCN(c1cc(-c2ccc(N3CCNCC3)nc2)cc2c(NCc3c(C)cc(C)[nH]c3=O)nccc12)C1CCC(N(C)C)CC1` (stereo not shown) [Compound Z-157] the figure was 16 nM; with `CCN(c1cc(-c2ccc(NC3CCN(C)CC3)cc2)cc2c(NCc3c(C)cc(C)[nH]c3=O)nccc12)C1CCOCC1` [Compound Z-158], 367 nM.
Same read-out and setting: with `CCN(c1cc(-c2ccc(N3CCNCC3)nc2)cc2c(NCc3c(C)cc(C)[nH]c3=O)nccc12)C1CCC(O)CC1` (stereo not shown) [Compound Z-159] the figure was 21 nM; with `CCN(c1cc(-c2cnc(N3CCNCC3)nc2)cc2c(NCc3c(C)cc(C)[nH]c3=O)nccc12)[C@H]1CC[C@H](N(C)C)CC1` [Compound Z-160], 6 nM.
For `CCN(c1cc(C(=O)NC)cc2c(NCc3c(C)cc(C)[nH]c3=O)nccc12)C1CCOCC1` [Compound Z-161], the half-inhibitory concentration (IC50) came out at 331 nM.
The same measure, in the same setting: in the case of `CCN(c1cc(C(=O)Nc2cccnc2)cc2c(NCc3c(C)cc(C)[nH]c3=O)nccc12)C1CCOCC1` [Compound Z-162] it was 253 nM; in that of `CCN(c1cc(C(=O)NC2CCN(C)CC2)cc2c(NCc3c(C)cc(C)[nH]c3=O)nccc12)C1CCOCC1` [Compound Z-163], 33 nM; in that of `CCN(c1cc(C(=O)Nc2ccccn2)cc2c(NCc3c(C)cc(C)[nH]c3=O)nccc12)C1CCOCC1` [Compound Z-164], 371 nM.
On the same count and under the same terms, in the case of `CCN(c1cc(C(=O)NC)cc2c(NCc3c(C)cc(C)[nH]c3=O)nccc12)[C@H]1CC[C@H](N(C)C)CC1` [Compound Z-166] it was 15 nM.
As to `CCN(c1cc(C(=O)N2CCOCC2)cc2c(NCc3c(C)cc(C)[nH]c3=O)nccc12)C1CCOCC1` [Compound Z-167], the 50% inhibitory concentration (IC50) came out at 453 nM.
Same read-out and setting: in the case of `CCN(c1cc(C(=O)N(C)C2CCN(C)CC2)cc2c(NCc3c(C)cc(C)[nH]c3=O)nccc12)C1CCOCC1` [Compound Z-169] it was 451 nM.
Same read-out and setting: with `CCN(c1cc(C(=O)N(C)C)cc2c(NCc3c(C)cc(C)[nH]c3=O)nccc12)[C@H]1CC[C@H](N(C)C)CC1` [Compound Z-170] the figure was 374 nM; with `CCN(c1cc(C(=O)NC2CCN(C)CC2)cc2c(NCc3c(C)cc(C)[nH]c3=O)nccc12)C1CCC(N(C)C)CC1` (stereo not shown) [Compound Z-172], 81 nM.
Regarding `CCN(c1cc(Cl)cc2c(NCc3c(C)cc(C)[nH]c3=O)nccc12)C1CCN(C(=O)CC#N)CC1` [Compound Z-175], the IC50 came to 182 nM.
Still for that read-out and setting: with `CCN(c1cc(Cl)cc2c(NCc3c(C)cc(C)[nH]c3=O)nccc12)C1CCN(C(=O)CO)CC1` [Compound Z-176] the figure was 139 nM; with `CCN(c1cc(C#CCN2CCOCC2)cc2c(NCc3c(C)cc(C)[nH]c3=O)nccc12)C1CCOCC1` [Compound Z-178], 348 nM.
Same read-out and setting: with `CCN(c1cc(C#CCN2CCOCC2)cc2c(NCc3c(C)cc(C)[nH]c3=O)nccc12)C1CCN(C(C)=O)CC1` [Compound Z-181] the figure was 226 nM.
The same measure, in the same setting: with `CCN(c1cc(Nc2cccnc2)cc2c(NCc3c(C)cc(C)[nH]c3=O)nccc12)[C@H]1CC[C@H](N(C)C)CC1` [Compound Z-182] the figure was 504 nM; with `CCN(c1cc(N2CCN(C)CC2)cc2c(NCc3c(C)cc(C)[nH]c3=O)nccc12)C1CCC(N(C)C)CC1` (stereo not shown) [Compound Z-187], 213 nM.
For the compound `CCN(c1cc(N2CCN(C3CCOCC3)CC2)cc2c(NCc3c(C)cc(C)[nH]c3=O)nccc12)C1CCC(N(C)C)CC1` (stereo not shown) [Compound Z-189], the IC50 was 307 nM.
Same read-out and setting: with `CCN(c1cc(Oc2ccccc2)cc2c(NCc3c(C)cc(C)[nH]c3=O)nccc12)[C@H]1CC[C@H](N(C)C)CC1` [Compound Z-190] the figure was 472 nM; with `CCN(c1cc(-c2ccc(N3CCN(C)CC3)nc2)cc2c(NCc3c(OC)cc(C)[nH]c3=O)nccc12)C1CCN(C(C)C)CC1` [Compound Z-191], 206 nM.
For `CCc1cc(C)[nH]c(=O)c1CNc1nccc2c(N(CC)C3CCC(N(C)C)CC3)cc(Cl)cc12` (stereo not shown) [Compound Z-204], the IC50 was 24 nM.
Still for that read-out and setting: in the case of `CCN(c1cc(Cl)cc2c(NCc3c(C)cc(C)[nH]c3=O)nccc12)C1CCC(N2CCC2)CC1` (stereo not shown) [Compound Z-205] it was 35 nM; in that of `CCN(c1cc(Cl)cc2c(NCc3c(C)cc(C)[nH]c3=O)nccc12)C1CC2(CNC2)C1` [Compound Z-207], 32 nM.
Same read-out and setting: with `CCN(c1cc(C2CCN(C)CC2)cc2c(NCc3c(C)cc(C)[nH]c3=O)nccc12)C1CCC(O)CC1` (stereo not shown) [Compound Z-212] the figure was 185 nM; with `CCN(c1cc(C(C)C)cc2c(NCc3c(C)cc(C)[nH]c3=O)nccc12)[C@H]1CC[C@H](N(C)C)CC1` [Compound Z-214], 373 nM.
On the same count and under the same terms, in the case of `CCN(c1cc(-c2ccc(N3CCN(C)CC3)nc2)cc2c(NCc3c(C)n(C)[nH]c3=O)nccc12)C1CCC(N(C)C)CC1` (stereo not shown) [Compound Z-216, 4-((5-((4-(dimethylamino)cyclohexyl)(ethyl)amino)-7-(6-(4-methylpiperazin-1-yl)pyridine-3-yl)isoquinolin-1-ylamino)methyl)-1,5-dimethyl-H-pyrazol-3-(2H)-one] it was 365 nM; in that of `CCN(c1cc(-c2cnc(N3CCN(C)CC3)nc2)cc2c(NCc3c(C)cc(C)[nH]c3=O)nccc12)C1CCC(C)(O)CC1` (stereo not shown) [Compound Z-221, 3-((5-(ethyl(4-hydroxy-4-methylcyclohexyl)amino)-7-(2-(4-methylpiperazin-1-yl)pyrimidin-5-yl)isoquinolin-1-ylamino)methyl)-4,6-dimethyl pyridin-2(1H)-one], 194 nM.
For the compound `CCN(c1cc(-c2ccc(N3CCN(C)CC3)nc2)cc2c(NCc3c(C)cc(C)[nH]c3=O)ncc(F)c12)C1CCC(N(C)C)CC1` (stereo not shown) [Compound Z-223, 3-((5-((4-(dimethylamino)cyclohexyl)(ethyl)amino)-4-fluoro-7-(6-(4-methylpiperazin-1-yl)pyridin-3-yl)isoquinolin-1-ylamino)methyl)-4,6-dimethyl-2(1H)-one], the IC50 was determined as 45 nM.
Same read-out and setting: in the case of `CCN(c1cc(-c2ccc(N3CCN(C)CC3)nc2)cc2c(NCc3c(C)cc(C)[nH]c3=O)nccc12)C1CCC(NC(C)=O)CC1` (stereo not shown) [Compound Z-225, N-(4-((1-((4,6-dimethyl-2-oxo-1,2-dihydropyridin-3-yl)methylamino)-7-(6-(4-methylpiperazin-1-yl)pyridin-3-yl)isoquinolin-5-yl) (ethyl)amino)cyclohexyl) acetamide] it was 68 nM; in that of `CCN(c1cc(C(N)=O)cc2c(NCc3c(C)cc(C)[nH]c3=O)nccc12)[C@H]1CC[C@H](N(C)C)CC1` [Compound Z-227, 1-((4,6-dimethyl-2-oxo-1,2-dihydropyridin-3-yl)methylamino)-5-(((1R,4R)-4-(dimethylamino)cyclohexyl) (ethyl)amino) isoquinoline-7-carboxamide], 64 nM; in that of `CCN(c1cc(Cl)cc2c(NCc3c(C)cc(C)[nH]c3=O)nccc12)C1CCN(S(C)(=O)=O)CC1` [Compound Z-229], 429 nM.
For `CCN(c1c(F)c(-c2ccc(N3CCN(C)CC3)nc2)cc2c(NCc3c(C)cc(C)nc3O)nccc12)[C@H]1CC[C@@H](N(C)C)CC1` [Compound Z-231, 3-((5-(((1S,4S)-4-(dimethylamino)cyclohexyl) (ethyl)amino)-6-fluoro-7-(6-(4-methylpiperazin-1-yl)pyridin-3-yl)isoquinolin-1-ylamino)methyl)-4,6-dimethyl-2(1H)-one], the IC50 was 174 nM.

The test is the same for the next values; noted with them: read-out: EZH2 Y641F IC50; Recombinant PRC2 (EZH2-Y641F), LANCE Ultra detection, 3 hours reaction.
With `CCN(c1cc(Oc2cccnc2)cc2c(NCc3c(C)cc(C)[nH]c3=O)nccc12)[C@H]1CC[C@H](N(C)C)CC1` [Compound Z-188], the IC50 was 112 nM.
